# In patent publication US20260265238A1, “COMPOUNDS AND PHARMACEUTICAL COMPOSITIONS THAT DEGRADE SWI/SNF-RELATED MATRIX-ASSOCIATED ACTIN-DEPENDENT REGULATOR OF CHROMATIN SUBFAMILY A” (Plexium, Inc., priority 2023, published 2026):
# What was measured:
# [1] = molecular target: T1, SMARCA4-HiBiT HeLa cells (protein which is expressed from the SMARCA4 gene) (Homo sapiens, UniProt P51532); test: SMARCA4 degradation assay (HiBiT-fusion HeLa cell line, 24 h, luminescence); format: cell-based
# T1 construct: protein which is expressed from the SMARCA2 and SMARCA4 genes; host or cells: HeLa (SMARCA4-HiBiT engineered line)
# Summary of the method: (§1)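 HiBiT-fusion HeLa lines, 8,000 cells/well, overnight attachment; cpd 10-pt series (typically 10 μM–300 pM), 24 h, 37° C. Lysis with LgBiT + HiBiT substrate, 10 min shaking at RT, luminescence read. DC50 from dose-response fit; % degradation also scored at 1 μM.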
# [2] = molecular target: T2, SMARCA2-HiBiT HeLa cells (protein which is expressed from the SMARCA2 gene) (Homo sapiens, UniProt P51531); test: SMARCA2 degradation assay (HiBiT-fusion HeLa cell line, 24 h, luminescence); format: cell-based
# T2 construct: protein which is expressed from the SMARCA2 and SMARCA4 genes; host or cells: HeLa (SMARCA2-HiBiT engineered line)
# Summary of the method: as §1
# T2 sequence (P51531 whole entry, the tested form may be a part): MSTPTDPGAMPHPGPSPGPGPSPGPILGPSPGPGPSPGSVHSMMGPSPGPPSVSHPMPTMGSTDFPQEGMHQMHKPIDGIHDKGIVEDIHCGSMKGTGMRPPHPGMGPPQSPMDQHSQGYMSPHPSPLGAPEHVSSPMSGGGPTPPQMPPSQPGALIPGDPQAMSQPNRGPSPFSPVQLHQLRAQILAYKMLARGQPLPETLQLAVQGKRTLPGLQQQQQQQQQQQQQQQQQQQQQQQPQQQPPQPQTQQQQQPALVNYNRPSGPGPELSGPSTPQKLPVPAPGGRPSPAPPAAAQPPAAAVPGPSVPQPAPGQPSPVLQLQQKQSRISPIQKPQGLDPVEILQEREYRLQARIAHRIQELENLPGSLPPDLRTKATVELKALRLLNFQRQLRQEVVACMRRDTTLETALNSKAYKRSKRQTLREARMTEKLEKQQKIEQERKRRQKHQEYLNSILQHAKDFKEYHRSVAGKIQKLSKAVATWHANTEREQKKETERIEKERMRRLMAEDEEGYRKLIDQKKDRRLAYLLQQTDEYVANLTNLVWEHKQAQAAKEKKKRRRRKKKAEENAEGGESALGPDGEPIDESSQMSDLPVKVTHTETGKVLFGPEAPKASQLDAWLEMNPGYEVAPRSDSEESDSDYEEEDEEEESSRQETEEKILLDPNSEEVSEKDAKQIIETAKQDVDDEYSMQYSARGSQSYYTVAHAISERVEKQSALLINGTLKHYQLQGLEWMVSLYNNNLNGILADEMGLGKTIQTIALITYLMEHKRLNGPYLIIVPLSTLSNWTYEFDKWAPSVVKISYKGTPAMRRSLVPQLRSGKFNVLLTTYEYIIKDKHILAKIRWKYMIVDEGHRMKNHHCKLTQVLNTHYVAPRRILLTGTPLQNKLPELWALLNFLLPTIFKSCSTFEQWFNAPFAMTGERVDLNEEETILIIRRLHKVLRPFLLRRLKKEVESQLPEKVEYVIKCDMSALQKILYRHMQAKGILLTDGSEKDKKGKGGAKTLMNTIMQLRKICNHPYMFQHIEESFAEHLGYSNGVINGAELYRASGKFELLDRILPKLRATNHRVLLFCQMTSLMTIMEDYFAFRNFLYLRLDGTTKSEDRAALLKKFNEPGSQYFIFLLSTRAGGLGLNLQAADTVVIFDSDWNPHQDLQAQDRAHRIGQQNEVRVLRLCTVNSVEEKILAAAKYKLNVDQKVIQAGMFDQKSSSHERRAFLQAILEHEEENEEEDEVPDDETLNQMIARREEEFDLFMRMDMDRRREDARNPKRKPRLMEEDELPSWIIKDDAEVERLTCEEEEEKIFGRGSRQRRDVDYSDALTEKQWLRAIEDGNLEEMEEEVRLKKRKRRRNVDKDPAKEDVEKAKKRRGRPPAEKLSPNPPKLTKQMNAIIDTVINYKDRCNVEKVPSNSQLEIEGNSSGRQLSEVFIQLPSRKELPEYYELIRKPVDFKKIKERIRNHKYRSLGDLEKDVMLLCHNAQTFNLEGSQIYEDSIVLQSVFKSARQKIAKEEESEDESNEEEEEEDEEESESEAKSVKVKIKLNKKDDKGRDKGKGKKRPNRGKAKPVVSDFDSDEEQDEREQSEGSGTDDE
# T1 sequence (P51532 whole entry, the tested form may be a part): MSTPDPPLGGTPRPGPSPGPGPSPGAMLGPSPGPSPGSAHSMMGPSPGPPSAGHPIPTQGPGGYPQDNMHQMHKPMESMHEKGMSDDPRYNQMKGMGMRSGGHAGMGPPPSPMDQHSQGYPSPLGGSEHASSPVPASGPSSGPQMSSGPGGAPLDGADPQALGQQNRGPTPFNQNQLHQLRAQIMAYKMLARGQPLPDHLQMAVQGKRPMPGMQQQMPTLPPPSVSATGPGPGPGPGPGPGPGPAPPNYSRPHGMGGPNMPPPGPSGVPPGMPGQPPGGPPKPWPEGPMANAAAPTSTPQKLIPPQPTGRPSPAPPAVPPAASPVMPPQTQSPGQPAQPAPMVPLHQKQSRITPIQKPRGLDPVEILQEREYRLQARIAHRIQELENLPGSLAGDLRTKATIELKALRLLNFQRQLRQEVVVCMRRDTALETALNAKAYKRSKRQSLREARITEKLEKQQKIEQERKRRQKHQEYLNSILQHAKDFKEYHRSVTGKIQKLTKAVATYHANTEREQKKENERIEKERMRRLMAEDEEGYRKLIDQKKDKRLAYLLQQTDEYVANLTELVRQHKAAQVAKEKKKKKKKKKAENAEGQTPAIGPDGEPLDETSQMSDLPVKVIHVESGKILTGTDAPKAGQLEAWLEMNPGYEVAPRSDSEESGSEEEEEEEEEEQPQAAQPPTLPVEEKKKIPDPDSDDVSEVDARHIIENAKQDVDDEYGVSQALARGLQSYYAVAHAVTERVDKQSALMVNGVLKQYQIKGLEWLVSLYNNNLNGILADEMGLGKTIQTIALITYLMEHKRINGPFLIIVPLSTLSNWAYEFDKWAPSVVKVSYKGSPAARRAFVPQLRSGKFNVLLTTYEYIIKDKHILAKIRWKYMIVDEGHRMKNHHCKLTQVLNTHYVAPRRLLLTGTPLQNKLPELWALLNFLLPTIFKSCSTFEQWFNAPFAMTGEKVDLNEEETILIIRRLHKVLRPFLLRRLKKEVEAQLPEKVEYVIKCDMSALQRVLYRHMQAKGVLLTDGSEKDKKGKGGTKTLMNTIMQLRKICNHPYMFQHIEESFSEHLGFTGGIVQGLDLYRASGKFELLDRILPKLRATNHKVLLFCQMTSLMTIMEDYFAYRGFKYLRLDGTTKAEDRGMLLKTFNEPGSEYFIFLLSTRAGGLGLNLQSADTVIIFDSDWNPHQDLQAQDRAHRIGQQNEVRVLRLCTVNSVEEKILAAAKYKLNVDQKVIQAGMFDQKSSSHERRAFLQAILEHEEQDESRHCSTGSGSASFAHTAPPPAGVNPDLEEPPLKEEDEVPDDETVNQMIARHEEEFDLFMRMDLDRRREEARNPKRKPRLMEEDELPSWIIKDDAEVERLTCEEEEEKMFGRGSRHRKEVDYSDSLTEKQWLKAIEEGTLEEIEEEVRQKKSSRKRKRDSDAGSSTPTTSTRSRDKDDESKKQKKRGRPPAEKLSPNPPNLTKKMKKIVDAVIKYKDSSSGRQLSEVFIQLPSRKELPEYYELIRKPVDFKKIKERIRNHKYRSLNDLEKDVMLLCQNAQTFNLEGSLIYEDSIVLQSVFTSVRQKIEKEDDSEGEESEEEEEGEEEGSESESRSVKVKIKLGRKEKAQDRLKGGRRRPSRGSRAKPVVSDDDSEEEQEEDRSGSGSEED
SMILES,DC50 [1] [µM],inhibition at 1 µM [1] [%],DC50 [2] [µM],SMARCA2 % Degradation @ 1 μM [2]
"C[C@@H]1CCN(c2cc(-c3ccccc3O)nnc2N)CCN1c1ccnc(C#CCN2CC3CCC(C2)O3)n1 [Compound P-183, o-{5-[(R)-5-methyl-4-(2-{3-(8-oxa-3-azabicyclo[3.2.1]oct-3-yl)-1-propynyl}-4-pyrimidinyl)-1,4-diazepan-1-yl]-6-amino-3-pyridazinyl}phenol]",0.05 to 0.5,30 to 70,0.05 to 0.5,+++ (+++=>70%)
"C[C@@H]1CCN(c2cc(-c3ccccc3O)nnc2N)CCN1c1ccnc(C#CCN2C3COCC2C3)n1 [Compound P-184, o-{5-[(R)-5-methyl-4-(2-{3-(3-oxa-6-azabicyclo[3.1.1]hept-6-yl)-1-propynyl}-4-pyrimidinyl)-1,4-diazepan-1-yl]-6-amino-3-pyridazinyl}phenol]",< 0.05,30 to 70,< 0.05,+++ (+++=>70%)
"Nc1nnc(-c2ccccc2O)cc1N1CCC2(CCN(c3ccnc(C#CCN4CC5CC4C5)n3)CC2)C1 [Compound P-187, o-{6-amino-5-[8-(2-{3-(2-azabicyclo[2.1.1]hex-2-yl)-1-propynyl}-4-pyrimidinyl)-2,8-diaza-2-spiro[4.5]decyl]-3-pyridazinyl}phenol]",0.05 to 0.5,30 to 70,0.05 to 0.5,++ (++=30-70%)
"Nc1nnc(-c2ccccc2O)cc1N1CC2CCC(C1)N2c1ccnc(C#CCN2CC3CC2C3)n1 [Compound P-188, o-{6-amino-5-[8-(2-{3-(2-azabicyclo[2.1.1]hex-2-yl)-1-propynyl}-4-pyrimidinyl)-3,8-diazabicyclo[3.2.1]oct-3-yl]-3-pyridazinyl}phenol]",< 0.05,30 to 70,< 0.05,+++ (+++=>70%)
"C[C@@H]1CCN(c2cc(-c3ccccc3O)nnc2N)CCN1c1nc(C#CCN2CC3CC2C3)ncc1F [Compound P-189, o-{5-[(R)-4-(2-{3-(2-azabicyclo[2.1.1]hex-2-yl)-1-propynyl}-5-fluoro-4-pyrimidinyl)-5-methyl-1,4-diazepan-1-yl]-6-amino-3-pyridazinyl}phenol]",< 0.05,30 to 70,< 0.05,++ (++=30-70%)
"CC1(F)CCN(CC#Cc2nccc(N3CC4CCC(C3)N4c3cc(-c4ccccc4O)nnc3N)n2)C1 (stereo not shown) [Compound P-193, o-[6-amino-5-(3-{2-[3-(3-fluoro-3-methyl-1-pyrrolidinyl)-1-propynyl]-4-pyrimidinyl}-3,8-diazabicyclo[3.2.1]oct-8-yl)-3-pyridazinyl]phenol]",0.05 to 0.5,< 30,0.05 to 0.5,++ (++=30-70%)
"CC1(F)CCN(CC#Cc2nccc(N3C4CCC3CN(c3cc(-c5ccccc5O)nnc3N)C4)n2)C1 (stereo not shown) [Compound P-194, o-[6-amino-5-(8-{2-[3-(3-fluoro-3-methyl-1-pyrrolidinyl)-1-propynyl]-4-pyrimidinyl}-3,8-diazabicyclo[3.2.1]oct-3-yl)-3-pyridazinyl]phenol]",< 0.05,30 to 70,< 0.05,++ (++=30-70%)
"CC1(F)CCN(CC#Cc2nccc(N3CCC4(CC3)CCN(c3cc(-c5ccccc5O)nnc3N)C4)n2)C1 (stereo not shown) [Compound P-195, o-[6-amino-5-(8-{2-[3-(3-fluoro-3-methyl-1-pyrrolidinyl)-1-propynyl]-4-pyrimidinyl}-2,8-diaza-2-spiro[4.5]decyl)-3-pyridazinyl]phenol]",0.05 to 0.5,30 to 70,0.05 to 0.5,++ (++=30-70%)
"C[C@@H]1CCN(c2cc(-c3ccccc3O)nnc2N)CCN1c1ccnc(C#CC23CCC(C2)N3)n1 (stereo partly drawn) [Compound P-196, o-{5-[(R)-4-(2-{2-(5-azabicyclo[2.1.1]hex-1-yl)ethynyl}-4-pyrimidinyl)-5-methyl-1,4-diazepan-1-yl]-6-amino-3-pyridazinyl}phenol]",0.5 to 5,< 30,0.5 to 5,++ (++=30-70%)
"Nc1nnc(-c2ccccc2O)cc1OC1CC2CN(c3ccnc(C#CCN4CCC4)n3)CC2C1 (stereo not shown) [Compound P-197, o-[6-amino-5-(3-(2-[3-(1-azetidinyl)-1-propynyl]-4-pyrimidinyl}-3-azabicyclo[3.3.0]oct-7-yloxy)-3-pyridazinyl]phenol]",0.5 to 5,30 to 70,0.05 to 0.5,++ (++=30-70%)
"C[C@@H]1CCN(c2cc(-c3ccccc3O)nnc2N)CCN1c1ccnc(C#CCN2CCC3(CC2)COC3)n1 [Compound P-199, o-{5-[(R)-5-methyl-4-(2-{3-(2-oxa-7-aza-7-spiro[3.5]nonyl)-1-propynyl}-4-pyrimidinyl)-1,4-diazepan-1-y1]-6-amino-3-pyridazinyl}phenol]",0.05 to 0.5,30 to 70,0.05 to 0.5,+++ (+++=>70%)
"C[C@@H]1CCN(c2cc(-c3ccccc3O)nnc2N)CCN1c1nc(C#CCN2CCCC2=O)ncc1F [Compound P-203, 1-[3-(4-{(R)-4-[3-amino-6-(o-hydroxyphenyl)-4-pyridazinyl]-7-methyl-1,4-diazepan-1-y1}-5-fluoro-2-pyrimidinyl)-2-propynyl]-2-pyrrolidinone]",0.05 to 0.5,30 to 70,0.05 to 0.5,++ (++=30-70%)
"Nc1nnc(-c2ccccc2O)cc1N1CC2CC(C1)N2c1ccnc(C#CCN2CC(F)(F)C2)n1 [Compound P-204, o-[6-amino-5-(6-{2-[3-(3,3-difluoro-1-azetidinyl)-1-propynyl]-4-pyrimidinyl}-3,6-diazabicyclo[3.1.1]hept-3-yl)-3-pyridazinyl]phenol]",0.5 to 5,30 to 70,0.05 to 0.5,++ (++=30-70%)

# Continued, values first:
DC50 [1] [µM],inhibition at 1 µM [1] [%],DC50 [2] [µM],SMARCA2 % Degradation @ 1 μM [2],SMILES
0.05 to 0.5,> 70,0.05 to 0.5,+++ (+++=>70%),"Cc1nc(C)n(CC#Cc2nccc(N3CCN(c4cc(-c5ccccc5O)nnc4N)CC[C@H]3C)n2)c1C [Compound P-185, o-{5-[(R)-5-methyl-4-{2-[3-(2,4,5-trimethyl-1-imidazolyl)-1-propynyl]-4-pyrimidinyl}-1,4-diazepan-1-y1]-6-amino-3-pyridaziny1} phenol]"
0.05 to 0.5,30 to 70,0.05 to 0.5,+++ (+++=>70%),"Cc1nccn1CC#Cc1nccc(N2CCN(c3cc(-c4ccccc4O)nnc3N)CC[C@H]2C)n1 [Compound P-186, o-{5-[(R)-5-methyl-4-{2-[3-(2-methyl-1-imidazolyl)-1-propynyl]-4-pyrimidinyl}-1,4-diazepan-1-yl]-6-amino-3-pyridazinyl}phenol]"
0.05 to 0.5,30 to 70,0.05 to 0.5,+++ (+++=>70%),"C[C@@H]1CCN(c2cc(-c3ccccc3O)nnc2N)CCN1c1ccnc(C#CCN2CC3CC2(C)C3)n1 [Compound P-190, o-{5-[(R)-5-methyl-4-(2-{3-(1-methyl-2-azabicyclo[2.1.1]hex-2-yl)-1-propynyl}-4-pyrimidinyl)-1,4-diazepan-1-yl]-6-amino-3-pyridazinyl}phenol]"
0.05 to 0.5,30 to 70,0.05 to 0.5,++ (++=30-70%),"C[C@@H]1CCN(c2cc(-c3ccccc3O)nnc2N)CCN1c1ccnc(C#CCn2cccc2)n1 [Compound P-191, o-{5-[(R)-5-methyl-4-{2-[3-(1-pyrrolyl)-1-propynyl]-4-pyrimidinyl}-1,4-diazepan-1-yl]-6-amino-3-pyridaziny1}phenol]"
0.05 to 0.5,30 to 70,< 0.05,+++ (+++=>70%),"C[C@@H]1CCN(c2cc(-c3ccccc3O)nnc2N)CCN1c1ccnc(C#CC2CN(C)C2)n1 [Compound P-192, o-{5-[(R)-5-methyl-4-{2-[2-(1-methyl-3-azetidinyl)ethynyl]-4-pyrimidinyl}-1,4-diazepan-1-y1]-6-amino-3-pyridaziny1} phenol]"
0.5 to 5,30 to 70,0.05 to 0.5,+++ (+++=>70%),"C[C@@H]1CCN(c2cc(-c3ccccc3O)nnc2N)CCN1c1ccnc(C#C[C@@H](C)O)n1 [Compound P-198, o-{5-[(R)-4-{2-[(R)-3-hydroxy-1-butynyl]-4-pyrimidinyl}-5-methyl-1,4-diazepan-1-yl]-6-amino-3-pyridazinyl}phenol]"
0.05 to 0.5,30 to 70,0.05 to 0.5,+++ (+++=>70%),C[C@@H]1CCN(c2cc(-c3ccccc3O)nnc2N)CCN1c1ccnc(C#CCN2C[C@@H]3C[C@H]2CO3)n1 [Compound P-200]
0.05 to 0.5,30 to 70,0.05 to 0.5,+++ (+++=>70%),"C[C@@H]1CCN(c2cc(-c3ccccc3O)nnc2N)CCN1c1ccnc(C#CCN2CC3(CCC3(F)F)C2)n1 [Compound P-201, o-{5-[(R)-4-(2-{3-(5,5-difluoro-2-aza-2-spiro[3.3]hcptyl)-1-propynyl}-4-pyrimidinyl)-5-methyl-1,4-diazepan-1-yl]-6-amino-3-pyridazinyl}phenol]"
< 0.05,30 to 70,< 0.05,+++ (+++=>70%),CCN(CC)CC#Cc1nccc(N2CCN(c3cc(-c4ccccc4O)nnc3N)CC[C@H]2C)n1 [Compound P-202]
